These results are taken from patent US6410792B1, “Amide derivatives and methods for using the same as selective neuropeptide Y receptor antagonists” (Bayer Corporation, priority 1997, dated 2002).

Where two headings read alike, the source gives them in different places.

In experiment [1] the target is T1, Y2 receptor (Homo sapiens, UniProt P49146).
T1 sequence (P49146 1-381): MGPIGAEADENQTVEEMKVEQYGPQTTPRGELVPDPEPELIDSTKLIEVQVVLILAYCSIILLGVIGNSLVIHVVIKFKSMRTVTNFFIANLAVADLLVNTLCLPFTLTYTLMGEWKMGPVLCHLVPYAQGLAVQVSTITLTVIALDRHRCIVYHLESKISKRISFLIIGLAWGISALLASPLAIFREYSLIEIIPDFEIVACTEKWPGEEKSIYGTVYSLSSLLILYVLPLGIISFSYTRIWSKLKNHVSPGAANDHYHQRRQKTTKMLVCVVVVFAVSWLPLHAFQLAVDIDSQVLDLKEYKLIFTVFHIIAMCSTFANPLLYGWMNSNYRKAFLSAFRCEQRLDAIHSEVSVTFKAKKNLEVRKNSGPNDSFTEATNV
The experiment can be described thus: Y2 receptor binding assay ([125I]PYY, membrane protein). The conditions noted are these: read-out: hNPY2 IC50. In outline:
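Filtration binding with membrane protein and drug dilution, 2 h at room temperature with mixing, radioactivity counted by gamma or scintillation. Y2: 25 pM [125I]PYY in Krebs-Ringer bicarbonate pH 7.4 with 0.01% BSA, nonspecific by 1 μM NPY. Y4/PP1: 50 pM [125I]hPP in HEPES-buffered saline pH 7.4 with protease inhibitors and 0.3% BSA, nonspecific by 1 μM hPP.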

Experiment [2] deals with T2, Human NPY5 receptor (Homo sapiens, UniProt Q15761).
T2 sequence (Q15761 1-445): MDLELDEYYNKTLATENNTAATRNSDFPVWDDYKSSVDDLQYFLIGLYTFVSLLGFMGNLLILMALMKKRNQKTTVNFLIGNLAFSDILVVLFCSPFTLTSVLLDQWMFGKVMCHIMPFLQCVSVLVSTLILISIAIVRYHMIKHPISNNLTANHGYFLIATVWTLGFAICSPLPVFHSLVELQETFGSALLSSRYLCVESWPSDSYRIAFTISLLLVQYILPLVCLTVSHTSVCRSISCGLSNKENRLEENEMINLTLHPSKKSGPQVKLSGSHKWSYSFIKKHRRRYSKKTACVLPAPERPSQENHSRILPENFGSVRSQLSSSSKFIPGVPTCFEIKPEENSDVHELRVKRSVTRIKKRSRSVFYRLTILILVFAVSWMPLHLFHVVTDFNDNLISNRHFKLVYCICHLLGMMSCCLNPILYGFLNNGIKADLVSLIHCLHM
The experiment can be described thus: Human NPY5 receptor binding assay ([125I]PYY, membrane protein). The conditions noted are these: [125I]PYY binding, read-out: hNPY5 IC50. The gist of the method: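 First, membrane protein, drug dilution and 75-100 pM [125I]PYY were combined in pH 7.4 Tris saline buffer containing divalent cations and 0.1% BSA. Next, samples were mixed 2 hours at room temperature. Finally, samples were filtered, washed ice-cold and counted; 1 μM PYY gave nonspecific binding.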

Setting [3] is: [125I]PYY binding, membrane protein.

Consider `O=C(CN1CCC(CCCC2CCN(CCO)CC2)CC1)Nc1ccc(C(=O)c2ccccc2)cc1` [Compound 67, N-(4-Benzoyl-phenyl)-2-(4-{3-[1-(2-hydroxy-ethyl)-piperidin-4-yl]-propyl}-piperidin-1-yl)-acetamide], for which the values for the IC50 in experiment [1] (setting [3]) and in experiment [2] were greater than 5 µM and greater than 10000 nM, respectively.

`O=C(CN1CCC(CCCC2CCN(CCO)CC2)CC1)Nc1ccc(C2CCCCC2)cc1` [Compound 68, N-(4-Cyclohexyl-phenyl)-2-(4-{3-[1-(2-hydroxy-ethyl)-piperidin-4-yl]-propyl}-piperidin-1-yl)-acetamide]: the IC50 – broadly, the concentration that gives 50% inhibition – in experiment [1] (setting [3]) was greater than 5 µM; in experiment [2], 9700 nM.

In the case of `CCC(=O)C1(c2ccccc2)CCN(CC(=O)Nc2ccc(C(=O)c3ccccc3)cc2)CC1` [Compound 69, N-(4-Benzoyl-phenyl)-2-(4-phenyl-4-propionyl-piperidin-1-yl)-acetamide], the IC50 in experiment [1] (setting [3]) is greater than 5 µM; in experiment [2], 3 nM.

`CC(O)C1CCN(CC(=O)Nc2ccc(C(=O)c3ccccc3)cc2)CC1` (stereo not shown) [Compound 70, N-(4-Benzoyl-phenyl)-2-[4-(1-hydroxy-ethyl)-piperidin-1-yl]-acetamide]: the results for the IC50 in experiment [1] (setting [3]) and in experiment [2] were greater than 5 µM and 3700 nM, respectively.

Consider `Cc1ccc(C2(O)CCN(CC(=O)Nc3ccc(C(=O)c4ccccc4)cc3)CC2)cc1` [Compound 71, N-(4-Benzoyl-phenyl)-2-(4-hydroxy-4-p-tolyl-piperidin-1-yl)-acetamide], for which the IC50 in experiment [1] (setting [3]) is greater than 5 µM; in experiment [2], 220 nM.

As to `O=C(CN1CCC(C(=O)N2CCCCC2)(c2ccccc2)CC1)Nc1ccc(C2CCCCC2)cc1` [Compound 72, N-(4-Cyclohexyl-phenyl)-2-[4-phenyl-4-(piperidine-1-carbonyl)-piperidin-1-yl]-acetamide], the results for the IC50 in experiment [1] (setting [3]) and in experiment [2] were greater than 5 µM and 1000 nM, respectively.

Turning to `O=C(CN1CCC(C(=O)N2CCCCC2)(c2ccccc2)CC1)Nc1ccc(C(=O)c2ccccc2)cc1` [Compound 73, N-(4-Benzoyl-phenyl)-2-[4-phenyl-4-(piperidine-1-carbonyl)-piperidin-1-yl]-acetamide], the IC50 in experiment [1] (setting [3]) is greater than 5 µM; in experiment [2], greater than 5000 nM.

On to `CCCC(=O)C1(c2ccccc2)CCN(CC(=O)Nc2ccc(C(=O)c3ccccc3)cc2)CC1` [Compound 74, N-(4-Benzoyl-phenyl)-2-(4-butyryl-4-phenyl-piperidin-1-yl)-acetamide], for which the IC50 in experiment [1] (setting [3]) was greater than 5 µM; in experiment [2], 400 nM.

For `CCCC(=O)C1(c2ccccc2)CCN(CC(=O)Nc2ccc(C3CCCCC3)cc2)CC1` [Compound 75, 2-(4-Butyryl-4-phenyl-piperidin-1-yl)-N-(4-cyclohexyl-phenyl)-acetamide], the IC50 in experiment [1] is greater than 5 µM; in experiment [2], 9 nM.

Turning to `O=C(CN1CCCC1c1cccnc1)Nc1ccc(C(=O)c2ccccc2)cc1` (stereo not shown) [Compound 77, N-(4-Benzoyl-phenyl)-2-(2-pyridin-3-yl-pyrrolidin-1-yl)-acetamide], the IC50 in experiment [1] (setting [3]) is greater than 5 µM; in experiment [2], 2600 nM.

On to `O=C(CN1CCC[C@H]1CN1CCCC1)Nc1ccc(C(=O)c2ccccc2)cc1` [Compound 78, N-(4-Benzoyl-phenyl)-2-(2S-pyrrolidin-1-ylmethyl-pyrrolidin-1-yl)-acetamide], for which the IC50 is greater than 5 µM in experiment [1] (setting [3]) and greater than 5000 nM in experiment [2].

As for `O=C(CN1CCC[C@H]1CN1CCCC1)Nc1ccc(C2CCCCC2)cc1` [Compound 79, N-(4-Cyclohexyl-phenyl)-2-(2S-pyrrolidin-1-ylmethyl-pyrrolidin-1-yl)-acetamide], the values for the IC50 in experiment [1] (setting [3]) and in experiment [2] were greater than 5 µM and 3500 nM, respectively.

On to `O=C(CN1CC[C@@H](O)C1)Nc1ccc(C2CCCCC2)cc1` [Compound 80, N-(4-Cyclohexyl-phenyl)-2-(3R-hydroxy-pyrrolidin-1-yl)-acetamide], for which the IC50 in experiment [1] (setting [3]) was greater than 5 µM; in experiment [2], 1400 nM.

`O=C(CN1CC[C@@H](O)C1)Nc1ccc(C(=O)c2ccccc2)cc1` [Compound 81, N-(4-Benzoyl-phenyl)-2-(3R-hydroxy-pyrrolidin-1-yl)-acetamide]: the IC50 in experiment [1] (setting [3]) was greater than 5 µM; in experiment [2], greater than 5000 nM.

On to `O=C(CN1CCC[C@@H]1C(O)(c1ccccc1)c1ccccc1)Nc1ccc(C(=O)c2ccccc2)cc1` [Compound 82, N-(4-Benzoyl-phenyl)-2-[2R-(hydroxy-diphenyl-methyl)-pyrrolidin-1-yl]-acetamide], for which the IC50 was greater than 5 µM in experiment [1] (setting [3]) and greater than 5000 nM in experiment [2].

For `O=C(CN1CCC[C@@H]1C(O)(c1ccccc1)c1ccccc1)Nc1ccc(C2CCCCC2)cc1` [Compound 83, N-(4-Cyclohexyl-phenyl)-2-[2R-(hydroxy-diphenyl-methyl)-pyrrolidin-1-yl]-acetamide], the IC50 is greater than 5 µM in experiment [1] (setting [3]) and 920 nM in experiment [2].

`O=C(CN1CCC[C@H]1CO)Nc1ccc(C2CCCCC2)cc1` [Compound 84, N-(4-Cyclohexyl-phenyl)-2-(2S-hydroxymethyl-pyrrolidin-1-yl)-acetamide]: the IC50 is greater than 5 µM in experiment [1] (setting [3]) and 930 nM in experiment [2].

Turning to `O=C(CN1CCC[C@H]1CO)Nc1ccc(C(=O)c2ccccc2)cc1` [Compound 85, N-(4-Benzoyl-phenyl)-2-(2S-hydroxymethyl-pyrrolidin-1-yl)-acetamide], the IC50 is greater than 5 µM in experiment [1] (setting [3]) and 2800 nM in experiment [2].

In the case of `CC(=O)C1(c2ccccc2)CCN(CC(=O)Nc2ccc(C(=O)c3ccccc3)cc2)CC1` [Compound 86, 2-(4-Acetyl-4-phenyl-piperidin-1-yl)-N-(4-benzoyl-phenyl)-acetamide], the IC50 in experiment [1] (setting [3]) is greater than 5 µM; in experiment [2] it was 1 nM.

`CC(=O)C1(c2ccccc2)CCN(CC(=O)Nc2ccc(C3CCCCC3)cc2)CC1` [Compound 87, 2-(4-Acetyl-4-phenyl-piperidin-1-yl)-N-(4-cyclohexyl-phenyl)-acetamide]: the IC50 was greater than 5 µM in experiment [1] (setting [3]) and 4 nM in experiment [2].

As to `NC[C@@H]1CCCN1CC(=O)Nc1ccc(C2CCCCC2)cc1` [Compound 91, 2-(2S-Aminomethyl-pyrrolidin-1-yl)-N-(4-cyclohexyl-phenyl)-acetamide], the IC50 was greater than 5 µM in experiment [1] (setting [3]) and 430 nM in experiment [2].

Regarding `O=C(CN1CCC(O)C1)Nc1ccc(C2CCCCC2)cc1` (stereo not shown) [Compound 92, N-(4-Cyclohexyl-phenyl)-2-(3-hydroxy-pyrrolidin-1-yl)-acetamide], the IC50 is greater than 5 µM in experiment [1] (setting [3]) and 1300 nM in experiment [2].

As to `COC[C@@H]1CCCN1CC(=O)Nc1ccc(C2CCCCC2)cc1` [Compound 93, N-(4-Cyclohexyl-phenyl)-2-(2S-methoxymethyl-pyrrolidin-1-yl)-acetamide], the 50% inhibitory concentration (IC50) in experiment [1] (setting [3]) is greater than 5 µM; in experiment [2], 480 nM.

Turning to `CC1(C)C[C@@H]2C[C@@](C)(CN2CC(=O)Nc2ccc(C3CCCCC3)cc2)C1` [Compound 94, N-(4-Cyclohexyl-phenyl)-2-((1S,5R)-1,3,3-trimethyl-6-aza-bicyclo[3.2.1]oct-6-yl)-acetamide], the IC50 was greater than 5 µM in experiment [1] (setting [3]) and 3200 nM in experiment [2].

Regarding `O=C(CN1CCC[C@H]1C(=O)OCc1ccccc1)Nc1ccc(C2CCCCC2)cc1` [Compound 95, (2S)-1-[(4-Cyclohexyl-phenylcarbamoyl)-methyl]-pyrrolidin-2-carboxylic acid benzyl ester], the 50% inhibitory concentration (IC50) in experiment [1] (setting [3]) is greater than 5 µM; in experiment [2] it was 1600 nM.

`COC(=O)[C@@H]1CCCN1CC(=O)Nc1ccc(C2CCCCC2)cc1` [Compound 96, (2S)-1-[(4-Cyclohexyl-phenylcarbamoyl)-methyl]-pyrrolidine-2-carboxylic acid methyl ester]: the values for the IC50 in experiment [1] (setting [3]) and in experiment [2] were greater than 5 µM and 1200 nM, respectively.

With `O=C(CN1CCC(Br)CC1)Nc1ccc(C2CCCCC2)cc1` [Compound 97, 2-(4-Bromo-piperidin-1-yl)-N-(4-Cyclohexyl-phenyl)-acetamide], the IC50 in experiment [1] (setting [3]) is greater than 5 µM; in experiment [2], 150 nM.

Consider `O=C(CN1C[C@H](O)C[C@H]1C(=O)O)Nc1ccc(C2CCCCC2)cc1` [Compound 98, (2S,4R)-1-[(4-Cyclohexyl-phenylcarbamoyl)-methyl]-4-hydroxy-pyrrolidine-2-carboxylic acid], for which the IC50 was greater than 5 µM in experiment [1] (setting [3]) and greater than 10000 nM in experiment [2].

As to `O=C(CN1CCC[C@H]1C(=O)O)Nc1ccc(C2CCCCC2)cc1` [Compound 99, (2S)-1-[(4-Cyclohexyl-phenylcarbamoyl)-methyl]-pyrrolidine-2-carboxylic acid], the IC50 in experiment [1] (setting [3]) is greater than 5 µM; in experiment [2], 8400 nM.
